Assay results: patent US11492618B2, “Expression control using a regulatable intron” (ASKLEPIOS BIOPHARMACEUTICAL, INC., priority 2017, dated 2022)

What was measured:
HEK293F cells [1] = test: EGFP expression from 6xATF6 promoter constructs with and without XBP1 intron after 2 mM DTT; type: cell-based, human
Protocol: For this study two constructs were prepared: • 1) 6×ATF6 elements (having the sequence TGACGTGCT) upstream of the CMV-minimal promoter (CMV-MP) and EGFP; this construct was named SYNP-ATF6-01 (see below, SEQ ID NO: 30). • 2) 6×ATF6 elements upstream of the CMV-MP and EGFP with XBP1 intron insertion; this construct was named SYNP-ATF6-02 (see below, SEQ ID NO: 31).
HEK293F cells were used in this study. All growth conditions, transfections and analyses were carried out as described in Example 1.
24 well transfections were set-up as described above. Each condition was performed in duplicate/triplicate. 24 hrs after transfection the cells were treated with either 2 mM DTT, to induce the UPR, or by mock treatment with an equivalent volume of water. 1, 3, 5 and 24 hrs after treatment of the cells GFP fluorescence was measured as previously described.
The ratio of GFP fluorescence to the control plasmid was calculated before and after induction.

HEK293F cells [2] = test: EGFP expression from ATF6 constructs induced by wtAAV production; type: cell-based, human
Protocol: In this experiment transfections were carried out in 24-well plates as previously described. The ATF6 plasmids (SYNP-ATF6-01 and SYNP-ATF6-02 constructs in the pMA-RQ vector) were transfected into HEK293F cells (using MAX reagent, as above) and after 24 hrs GFP was measured. After GFP measurement the same cells were transfected with the plasmids for wtAAV production pGRG25AAV2 (provided by Adrien Savvy) and pHelper plasmid from Takara/Clonetech in a 1:1 ratio. EGFP fluorescence was then measured after 1, 3, 5 and 24 hrs (FIGS. 7 and 8—not all data is shown). Both plasmids are required for wtAAV production, with the pGRG25AAV2 providing the wtAAV2 genome and the pHelper plasmid providing the E2, VA and E4 helper functions required for virus replication.
This confirmed successful AAV expression. Zs green is a variant of eGFP and as such GFP measurement was carried out on these cells as previously described.

“SYNP-ATF6-02: 6×ATF6 elements upstream of the CMV-MP and EGFP with XBP1 intron insertion (SEQ ID NO: 31)” was tested, and the “GFP expression after induction, ratio to CMV-IE” value (HEK293F cells [1]; 2 mM DTT, 3 independent experiments) was 4 times the level of CMV-IE, the “background level of GFP fluorescence” value (HEK293F cells [1]; before DTT, raw data) was “practically zero” and the “background level of EGFP before wtAAV production” value (HEK293F cells [2]) was “zero”.
